From patent US20190203253A1, “METHODS OF IDENTIFYING AND TREATING CANCER PATIENTS WITH AN EPHB6 DEFICIENCY” (University of Saskatchewan, priority 2016, published 2019)

What was measured:
[1] = test system: MDA-pc3 and MDA-B6 cells (MDA-MB-231); assay: Drug sensitivity assay (resazurin), SRC inhibitors, MDA-MB-231-derived cells; type: cell-based, human; settings: MDA-pc3 vs MDA-B6, increasing concentrations, 72 h, resazurin (FIG. 4A, 4B)
Method: FIG. 4. […] C. […] All experiments were performed at least three times.

[2] = test system: BT-20 cells (EPHB6-targeting shRNA vs non-silencing shRNA); assay: Drug sensitivity assay (resazurin), SRC inhibitors, BT-20 cells with silenced EPHB6; type: cell-based, human; settings: BT-20 with EPHB6-targeting shRNA vs non-silencing shRNA, 96 h (FIGS. 6A-6E)
Method: FIG. 6. SL relation between EPHB6 and SRC in BT-20 TNBC cells. A. Triple negative breast cancer cells, BT-20, were transduced with EPHB6-targeting shRNA (BT20-66-shRNA), or non-silencing shRNA (BT2O-NS). EPHB6 expression was analyzed by Western blotting with anti-EPHB6. Western blotting with anti-tubulin was used as a loading control. B. BT20-66-shRNA and BT2O-NS cells were cultured in 96-well plates with indicated concentrations of SU6656 or matching volumes of DMSO for 96 h. Cells were stained with resazurin and fluorescence was measured using a SpectraMax M5 plate reader to determine cell suppression. Five wells were analyzed per condition. […] C. […] Cells were stained with resazurin and fluorescence was measured using a SpectraMax M5 plate reader to determine cell suppression. Five wells were analyzed per condition. […] PI-stained cells were counted in at least 10 randomly captured frames. […] Stained cells were analyzed by flow cytometry and the FlowJo software. […]
MDA-MB-231 and BT-20 cell monolayers were incubated in 96-well plates for 72 h and 96 h, respectively, with indicated concentrations of KX2-391 or SU6656, or matching volumes of DMSO as a solvent control. Treated cells were stained using resazurin by following the manufacturer's instructions and fluorescence was measured using a SpectraMax M5 microplate reader.

[3] = biological target: SRC (Homo sapiens, UniProt P12931); assay: SRC inhibition in cells (anti-SRC immunoprecipitation, anti-phospho-SRC Western blot); type: cell-based; settings: MDA-B6 cells, 20 μM, 40 minutes, 10% FBS (FIG. 9B)
Chain of SRC (P12931 whole entry): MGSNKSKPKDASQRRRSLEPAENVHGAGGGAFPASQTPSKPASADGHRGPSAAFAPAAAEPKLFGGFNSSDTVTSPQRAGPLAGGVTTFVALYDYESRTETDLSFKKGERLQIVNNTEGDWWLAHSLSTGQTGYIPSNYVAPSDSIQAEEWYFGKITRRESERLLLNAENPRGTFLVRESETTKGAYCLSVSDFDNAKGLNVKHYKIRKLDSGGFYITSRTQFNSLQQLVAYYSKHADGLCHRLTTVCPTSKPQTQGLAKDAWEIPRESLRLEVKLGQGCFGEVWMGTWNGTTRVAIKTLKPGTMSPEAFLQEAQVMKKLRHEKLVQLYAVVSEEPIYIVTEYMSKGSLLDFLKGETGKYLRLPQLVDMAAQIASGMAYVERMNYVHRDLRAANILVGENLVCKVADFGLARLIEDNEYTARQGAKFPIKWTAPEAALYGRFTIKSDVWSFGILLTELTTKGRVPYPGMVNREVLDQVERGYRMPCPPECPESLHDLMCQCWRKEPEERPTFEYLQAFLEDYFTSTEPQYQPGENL

[4] = test system: BT20-NS and BT20-shB6 cells; assay: Cell survival (resazurin) with MET inhibitor, BT-20-derived cells; type: cell-based, human; settings: increasing concentrations, 24 hours, vs BT20-NS (FIG. 10B)
Method: (§1) FIG. 10. Analysis of EPHB6-MET SL interaction. A and B, MDA-B6 and MDA-pc3 (A) or BT2O-NS and BT20-shB6 (B) cells were treated for 24 hours with the indicated concentrations of MET inhibitor, ARQ197, or with matching concentrations of DMSO, as a control. Treated cells were stained with Resazurin for 2 h at 37° C. and cell survival was measured using a microplate reader. Data represent the analysis of triplicates and are shown as a percentage relative to matching DMSO controls. (*) Statistical analyses: Student's t test, P<0.05 for indicated points. All analyses represent one of at least three independent experiments.
(§2) As mentioned above, a number of potential candidates that predominantly function in signal transduction (FIG. 2G), including DDR2, SRC, ROCK2 and MET (Table 1), were identified. Further testing with a MET inhibitor, ARQ197, was conducted to evaluate its SL properties. MDA-B6 and MDA-pc3 cells, as well as BT20-NS and BT20-shB6 cells, obtained using a method similar as described above in Example 1, were treated with increasing concentrations of ARQ197.

[5] = test system: co-cultured MDA-pc3 and MDA-B6 cells; assay: Co-cultured colour-coded cells with MET inhibitor (flow cytometry); type: cell-based, human; settings: 0.3 μM, 24, 32 and 48 hours, 1:1 co-culture (FIG. 11)
Method: FIG. 11. MET inhibition preferentially suppresses EPHB6-deficient cells. Hygro-selected combinations of MDA-B6-GFP and MDA-pc3-RFP (A and B) or MDA-B6-RFP and MDA-pc3-GFP (C and D) cells were seeded in 1:1 ratio and treated with 0.3 μM concentration of Met receptor inhibitor, ARQ197, or with a matching volume of DMSO, as a solvent control for 24, 32, and 48 hours. Treated cells were analyzed by flow cytometry. Bar graphs are based on the analyses of triplicates and represent a suppression of ARQ197-treated cell populations as a percentage relative to matching DMSO controls. (*) Statistical analyses: Student's t test, P<0.05 for indicated points. All analyses represent one of at least three independent experiments. The skilled person in the art will understand that the drawings, described herein, are for illustration purposes only. The drawings are not intended to limit the scope of the applicants' teachings in any way.
as §2

[6] = test system: MDA-B6 and MDA-pc3 cells; assay: Cell survival (resazurin) with MET inhibitor, MDA-MB-231-derived cells; type: cell-based, human; settings: increasing concentrations, 24 hours, vs MDA-B6 (FIG. 10A)
Method: as §1, §2

SMILES | cell suppression relative to DMSO control, EPHB6-deficient vs EPHB6-expressing cells [1] | cell suppression after silencing of EPHB6 expression [2] | SRC inhibition (phospho-SRC) [3] | cell survival of BT20-shB6 cells [4] | suppression of cell populations in co-culture [5] | cell survival of EPHB6-deficient MDA-pc3 cells [6]
CN(C)S(=O)(=O)c1ccc2c(c1)/C(=C/c1cc3c([nH]1)CCCC3)C(=O)N2 [SU6656] | preferentially suppressed EPHB6-deficient MDA-pc3 cells | strongly increased their suppression | efficiently inhibited | – | – | –
O=C1NC(=O)[C@@H](c2cn3c4c(cccc24)CCC3)[C@@H]1c1c[nH]c2ccccc12 [ARQ197] | – | – | – | decreased cell survival compared to BT-20 cells transduced with non-silencing shRNA | preferentially suppressed EPPBH6-deficient MDA-B6 cells | decreased cell survival compared to MDA-B6 cells
